Results as given in US20160017011A1, “PHF20 AND JMJD3 COMPOSITIONS AND METHODS OF USE IN CANCER IMMUNOTHERAPY” (priority 2013, published 2016).
Residues, ends and D or L forms follow the SMILES beside them. *: point of attachment. Cbz = O=C(OCc1ccccc1)*

What was measured:
PHF20 protein = PHF20 protein amounts after MG132 treatment; assay type: cell-based; conditions: even when both Trim26 and Jmjd3 were overexpressed
From the text: (§1) Jmjd3-Trim26 is responsible for the enhanced reprogramming efficiency observed in Jmjd3-1-MEFs or in Dox-treated Tet-O-PHF20 MEFs.

iPSC colony formation = iPSC colony formation and cell death after MG132 treatment; assay type: cell-based
Experimental: Mouse iPSCs were generated as previously described (Takahashi et al., 2007a) with some minor modifications. Briefly, MEFs (1-8×10^4/well) were seeded on irradiated-MEFs in a 6-well plate. On the next day, the cells were transduced with an equal amount of lentiviruses expressing the four factors and rtTA. The following day, transduced-MEFs were cultured with mESC medium containing 2 μg/mL Dox for 14 days. Tet-O-4F MEFs were used to generate iPSCs by treating MEFs with Dox in mESC medium. The efficiency of iPSC formation as calculated based on the number of AP positive iPSC colonies and the initial cell number of seeded MEFs. Human iPSCs were generated as previously described (Park et al., 2008).
as §1

[1] = system: PHF20938-946-specific CD8+ T cells; assay: Recognition of peptide-pulsed T2 cells by PHF20-specific T cells (IFN-γ release); assay type: cell-based, human; conditions: T cells generated from PBMCs of HLA-A2+ healthy donors; FIG. 9A
Experimental: (FIG. 9A) PHF20938-946-specific CD8^+ T cells were generated from normal donor PBMCs after in vitro stimulation with PHF20 peptides, and used to determine the recognition of T2 cells loaded with different concentrations of PHF20938-946, peptide, or a control peptide as a negative control. (FIG. 9B) PHF20938-946-specific T cells were cultured alone in medium or co-incubated with HLA-A2^+ PHF20^+ (MCF-7) or HLA-A2^− PHF20^+ (DU4475, MDA-MB-361) breast cancer cell lines. A normal breast epithelial cell line MCF-10A is included as a control. T cell activity was determined by measuring cytokine (IFN-γ) release. (FIG. 9C) PHF20938-946-specific CD8^+ T cells were tested for cytotoxicity against MCF-7 by the LDH assay. HLA-A2 negative PHF20^+ PC3 cells were used as a negative control in the LDH assay. Data are plotted as means t SD. Results are representative of three independent experiments. *P<0.05, **P<0.01, ***P<0.001 versus controls.
Furthermore, PHF20-specific T cells could lyse HLA-A2^+ and PHF20^+ MCF-7 breast cancer cells (FIG. 9C).

Compound | amounts of PHF20 protein (PHF20 protein) | cell death (iPSC colony formation; MG132 treatment during reprogramming) | iPSC colony formation (iPSC colony formation; after MG132 treatment) | recognition of peptide-pulsed cells by PHF20-specific T cells [1]
CC(C)C[C@@H](C=O)NC(=O)[C@H](CC(C)C)NC(=O)[C@H](CC(C)C)NC(=O)OCc1ccccc1 [MG132] (Cbz-Leu-Leu-Leu-aldehyde) | increased the amounts of PHF20 protein | caused cell death | no iPSC colony formation was observed | 
WQFNLLTHV (PHFP 2) |  |  |  | capable of recognizing
